{"source": "patent US6893821B2", "about": "“Agents that modulate DNA-PK activity and methods of use thereof” (The Regents of the University of California, priority 2000, dated 2005)", "key": {"[1]": {"test_system": "bone marrow derived macrophages (BMDM)", "assay": "Northern blot of IL-6 and IL-12 mRNA in BMDM", "assay_type": "cell-based, mice", "method": "PCR were performed under the following conditions by appropriate cycling number (94° C. for 30 seconds; 65° C. for 30 seconds; and 68° C. for 30 seconds). PCR products were visualized by electrophoresis on 1.5% TAE agarose gels after being stained with ethidium bromide. BMDM isolated from either wild type or Ku 70^−/− mice were treated with ISS (10 μg/ml) or LPS (10 μg/ml) or left untreated for 6.5 hours. Total RNA was isolated and 10 μg of total RNA was separated on 1% agarose gel and then transferred onto a nylon membrane. The membrane was probed with [^32P]-labeled IL-6 or IL-12 or GAPDH cDNA followed by autoradiography, as described previously. Chu et al. (1999) Immunity 11:1.\nBMDM (2.5×10^5/well) from wt, or Ku70^−/− and Ku80^−/− mice were treated with LPS (1 μg/ml), ISS-ODN (5 μg/ml) or M-ODN (5 μg/ml) for 24 hours. IL-6 (A) or IL-12 (B) levels in the supernatants were determined by ELISA. Results are means±S.D, of 5 separate experiments for wt and Ku70^−/− and 3 separate experiments for Ku80^−/− mice. (C) BMDM were incubated with LPS (10 μg/ml) or ISS-ODN (5 μg/ml) for 6.5 hours. Total RNA was isolated and analyzed for the presence of IL-6, IL-12 and GAPDH messages by a Northern blot assay, as described in Example 1. Results are means±S.D. of 5 separate experiments for wt and Ku70^−/− and 3 separate experiments for Ku80^−/− mice. […]"}, "NF-κB": {"test_system": "NF-κB", "assay": "NF-κB activation in treated BMDM (EMSA)", "assay_type": "cell-based, mice", "method": "The ODNs (ps-ss) used include an ISS-ODN with an active CpG motif (AACGTT), a methylated ISS-ODN at the ^5C of the CpG dinucleotide (AA*CGTT) and various control ODNs. These ODNs were incubated at concentrations of 0, 0.1, 0.3, or 1 ng/reaction. The po-ISS-ODN was incubated at concentration of 20, 50 or 100 ng/reaction. The po-ds-ISS-ODN was incubated at concentration of 0, 0.5, 1, 2, 5 or 10 ng/reaction. The bacterial or calf thymus DNAs were each incubated at concentration of 1, 2 or 5 ng/reaction. Electrophoretic gel mobility shift assay (EMSA) was performed as previously described. Chu et al. (1999) Immunity 11:721-731; and Li et al., 1999, supra). In vitro IKK kinase assays were performed using purified IKK derived from Sf9 insect cell lysates as was previously described. Zandi et al. (1998) Science 281:1360-1363."}, "DNA-PK [2]": {"target": "T1, DNA-PK (Mus musculus, UniProt P23475+P27641+P97313)", "T1 construct": "endogenous in cells; host or cells: mouse bone marrow-derived macrophages (BMDM)", "assay": "DNA-PK activity in treated BMDM by immune-complex kinase assay", "assay_type": "cell-based, mice", "conditions": "wt BMDM", "method": "(§1) Kinase assays and immunoblotting were performed according to Li et al. ((1999) J. Exp. Med. 189:1839-1845). Briefly, BMDM were treated with ISS-ODN (5 μg/ml), M-ODN (5 μg/ml) on ps and po backbones as indicated, LPS-free bacterial DNA or methylated bacterial DNA (5 μg/ml), LPS-free calf thymus DNA (5 μg/ml), LPS (10 μg/ml) or TNFα (10 ng/ml) for the indicated time periods. Cell lysates were prepared and normalized by immunoblotting (IB) with anti-IKKα polyclonal antibodies (Santa Cruz, Santa Cruz Biotech Inc., Calif.), anti-IKKβ polyclonal antbodies (Santa Cruz) or anti-DNA-PKcs monoclonal antibodies (NeoMarker, Calif.). IκB kinase (IKK) complex or DNA-PK complex from 100 μg of the lysates were immunoprecipitated by anti-IKKα or by anti-DNA-PKcs antibodies. The kinase activities (KA) were determined by a kinase assay using the N-terminus of IκBα (for IKK) or the N-terminus of p53 (for DNA-PK) as a substrate as previously described. Wang et al. (1992) Proc. Natl. Acad. Sci. USA 89:4231-4235; Li et al.(1999), supra; and Hammarsten et al. (2000) J. Biol. Chem. 275:1541-1545.\n(§2) To further determine whether ISS-ODN, po-ISS-ODN or bacterial DNA activate DNA-PK in cells, we treated BMDM from either wt or DNA-PKcs-deficient mice with ISS-ODN, po-ISS-ODN, bacterial DNA or LPS as a control."}, "DNA-PK [3]": {"test_system": "DNA-PK", "assay": "DNA-PK activity in treated BMDM by immune-complex kinase assay", "assay_type": "cell-based, mice", "conditions": "DNA-PKcs-deficient BMDM", "method": "as §1, §2"}, "HSP70": {"test_system": "HSP70", "assay": "RT-PCR for induction of heat shock protein gene transcription in BMDM", "assay_type": "cell-based, mouse", "method": "A half million mouse BMDM isolated from BALB/c, IFNα receptor knockout, or IFNγ knockout mice were incubated with ISS-ODN or M-ODN at a final concentration of 10 μg/ml. After 0, 1, 2, 4, 6, and 8 hours, total RNA was prepared and analyzed by RT-PCR (reverse transcription-polymerase chain reaction) for induction of gene transcription of heat shock proteins. The sequences of the primers used is as follows: […]"}, "[4]": {"test_system": "bone marrow derived macrophages (BMDM)", "conditions": "Martin-Orozco et al. (1999); cited from earlier work"}}, "data": [{"substance": "5′-TGACTGTGAACGTTCGAGATGA-3′ [ISS-ODN]", "values": [{"measurement": "induction of IL-6 and IL-12 mRNAs", "setting": "[1]; DNA-PKcs-deficient BMDM", "value": "Little induction"}, {"measurement": "induction of IL-6 and IL-12 mRNA (Northern blot)", "setting": "[1]; Ku70-/- or Ku80-/- BMDM, 6.5 hours", "value": "lack of induction"}, {"measurement": "NF-κB activation, wt vs ATM-deficient BMDM", "setting": "NF-κB; ATM-deficient BMDM", "value": "no differences were observed"}, {"measurement": "NF-κB activation", "setting": "NF-κB; DNA-PKcs-/- BMDM", "value": "impaired NF-κB activation"}, {"measurement": "NF-κB activation", "setting": "NF-κB; IKKβ-/- Tnfr-/- BMDM (absence of IKKβ)", "value": "prevented"}, {"measurement": "time of peak DNA-PK activity", "setting": "DNA-PK [2]", "value": 1, "unit": "h"}, {"measurement": "DNA-PK activity in cells", "setting": "DNA-PK [2]; 30-minute incubation", "value": "Considerable DNA-PK activity"}, {"measurement": "DNA-PK activity in cells", "setting": "DNA-PK [3]", "value": "Little or no DNA-PK activity"}, {"measurement": "induction of HSP-70 gene transcription", "setting": "HSP70; BMDM from IFN type 1 receptor knockout mice", "value": "did not result in induction of HSP-70"}, {"measurement": "induction of inducible HSP-70 gene transcription", "setting": "HSP70; BMDM, 10 μg/ml, 0-8 hours", "value": "induces inducible HSP-70"}, {"measurement": "IL-6 and IL-12 secretion", "setting": "[4]", "value": "high levels"}]}]}
